Test results reported in US12226414B2, “1-isopropyl-3-methyl-8-(pyridin-3-yl)-1,3-dihydro-2H-imidazo[4,5-c] cinnolin-2-one as selective modulators of ataxia telangiectasia mutated (ATM) kinase and uses thereof” (SUZHOU ZANRONG PHARMA LIMITED, priority 2018, dated 2025).

Columns and labels:
[1] = target: mTOR (Homo sapiens (Human), UniProt P42345); test: mTOR biochemical potency assay
Description: Solution of mTOR enzymes (Millipore, Cat. No. 14-770, Lot. No. 2052551) was prepared in 1× kinase buffer at 4-fold of the final concentration (final concentration: 6 nM) in the assay. 2.5 μl of kinase solution was added to each well of the 384-well assay plate, which contains 2.5 μl of compounds with serially diluted concentration. 2× substrate solution was prepared with ULight-4E-BP1 (Thr37/46) Peptide (PE, Cat. No. TRF0128-M, Lot. No. 1695274) and ATP in 1× kinase reaction buffer at 2-fold of the final concentration of each reagent in the assay. 5 μl of substrate solution was added to each well of the assay plate to start reaction. The assay plate was incubated at room temperature for 30 minutes. Detection solution of kinase quench buffer (EDTA) and Eu-anti-phospho-4E-BP1 antibody (Thr37/46) (PE, Cat. No. TRF0216-M, Lot. No. 1571838) were prepared at 2-fold the desired final concentrations of each reagent in Lance detection buffer. 10 μl of detection solution buffer was added to each well of the assay plate. The assay plate was equilibrated for 60 minutes at room temperature before read on a plate reader (Lance signal (665 nm) from Envision program).

[2] = target: PIK3Cβ (p110β) (Homo sapiens (Human), UniProt P42338); test: PI3K biochemical potency assay (PI3Kβ)
Description: (§1) PI3Kα (p110α/p85a), PIK3C δ, PIK3Cβ (p110β), PIK3Cγ (pp110γ) kinase reaction solutions of PI3Kα (Invitrogen, Cat. No. PV4788), PIK3Cδ (Invitrogen, Cat. No. PV6452), PIK3Cβ (Millipore, Cat. No. 14-603-K), PIK3Cγ (Invitrogen, Cat. No. PR8641C) enzymes were prepared in 1× kinase buffer at 4-fold of the final concentration (final concentration: PI3Kα 0.7 nM, PIK3Cδ 3 nM, PIK3Cβ 4.8 nM, PIK3Cγ 11 nM) of each reagent in the assay. 2.5 μl of kinase solution was added to each well of the 384-well assay plate, which contains 2.5 μl of compounds with serially diluted concentration. 2× substrate solution was prepared with PIP2 substrate and ATP in 1× kinase reaction buffer at 2-fold of the final concentration of each reagent in the assay. 5 μl of substrate solution was added to each well of the assay plate to start reaction. The assay plate was incubated at room temperature for 1 hour. 5 μl reaction mix was transferred to a new 384 well plate. 5 μl of ADP-Glo reagent (Promega, Cat. No. v9102/3, Lot. No. 0000176563) was added to each well of the new assay plate to stop the reaction. The plate was shaken slowly and equilibrated for 40 minutes. 10 μl kinase detection reagents was added to each well, which was equilibrated for 60 minutes before read on a plate reader (Envision) for luminescence.

[3] = target: ATM (Homo sapiens (Human), UniProt Q13315); test: ATM biochemical potency assay
Description: The plate was incubated at room temperature for 10 minutes. […] Data was collected by Caliper.

[4] = target: ATR (Homo sapiens (Human), UniProt Q13535); test: ATR biochemical potency assay
Description: ATR enzyme was made by ChemPartner (batch: CP-ATR-20161102-M2). 2× enzyme solutions were prepared in 1× kinase base buffer. 10 μl of 2× enzyme solution (final concentration: 2.5 nM) was added to each well of the 384-well assay plate containing 60 nl compound in each well. The plate was incubated at room temperature for 10 minutes. 2× peptide solutions were prepared with FAM-labeled peptide and ATP in the 1× kinase base buffer. 10 μl of 2× peptide solution was added to each well of the 384-well assay plate, which was incubated at 28° C. for 240 min. 40 μl of stop buffer was added to stop reaction. Data were collected by Caliper.

[5] = target: ATM in SN38 treated HT-29 cells (Homo sapiens (Human), UniProt Q13315); test: ATM SN-38 HT-29 cellular potency assay
Description: Inhibition of ATM was evaluated in SN38 treated HT-29 cells (ATCC, Cat #HTB-38) by high-Content Imaging System
HT-29 cells were trypsinized and approximately 10,000 cells were seeded per well to 96-well microplates which were incubated overnight at 37° C. and 5% CO2. Test compounds were added to the 96-well plates which were incubated at 37° C. and 5% CO2 for 1 hour. […] After the plates were rinsed 3 times with PBSA, 50 μl permeabilization buffer (0.1% Triton-X 100 in PBSA) was added and the plates were incubated for 20 minutes at room temperature. After the plates were rinsed once with PBSA, 50 μl primary antibody solution was added and the plates were incubated in at 4° C. overnight. […] The plates were rinsed with PBST 3 times and then 100 μl PBSA were added per well. The plates were sealed with black plate seals.

[6] = target: PIK3Cγ (pp110γ) (Homo sapiens (Human), UniProt P48736); test: PI3K biochemical potency assay (PI3Kγ)
Description: as §1

[7] = target: PI3Kα (p110α/p85a) (Homo sapiens (Human), UniProt P42336); test: PI3K biochemical potency assay (PI3Kα)
Description: as §1

[8] = target: PIK3Cδ (Homo sapiens (Human), UniProt O00329); test: PI3K biochemical potency assay (PI3Kδ)
Description: as §1

[9] = target: hERG channel (Homo sapiens (Human), UniProt Q12809); test: hERG safety assessment, manual patch clamp; settings: for hERG inhibition @10 μM: HEK 293 cells stably expressing hERG
Description: Inhibition of hERG channel was conducted in HEK 293 cell line stably expressing hERG channel by manual patch clamp.

[10] = target: P-glycoprotein (Pgp) (Homo sapiens (Human), UniProt P08183); test: MDCK-MDR1 Pgp assessment
Description: Efflux transport mediated by P-glycoprotein (Pgp) was assessed by MDCK-MDR1 cells. The final concentrations of test compounds and control compound were at 1 μM. The multiwell insert plate was incubated at 37° C. for 2 hours.

[11] = target: T1, aldehyde oxidase (AO) (Homo sapiens (Human), UniProt Q06278); test: Aldehyde oxidase assay in human liver cytosol; settings: human liver cytosol 1 mg/mL, 0.5 μM compound
[12] = cited from earlier work; for clearance as % liver blood flow: humans
[13] = target: T1, aldehyde oxidase (AO); test: in vitro; settings: human liver cytosol
[14] = target: BCRP (Homo sapiens (Human), UniProt Q9UNQ0); test: Caco-2 BCRP assessment; assay type: in vitro ADME; settings: −inhibitor/+inhibitor (novobiocin 30 μM)
Description: Caco-2 cells was used to study efflux transport mediated by BCRP.

Chain of PIK3Cγ (pp110γ) (P48736 whole entry): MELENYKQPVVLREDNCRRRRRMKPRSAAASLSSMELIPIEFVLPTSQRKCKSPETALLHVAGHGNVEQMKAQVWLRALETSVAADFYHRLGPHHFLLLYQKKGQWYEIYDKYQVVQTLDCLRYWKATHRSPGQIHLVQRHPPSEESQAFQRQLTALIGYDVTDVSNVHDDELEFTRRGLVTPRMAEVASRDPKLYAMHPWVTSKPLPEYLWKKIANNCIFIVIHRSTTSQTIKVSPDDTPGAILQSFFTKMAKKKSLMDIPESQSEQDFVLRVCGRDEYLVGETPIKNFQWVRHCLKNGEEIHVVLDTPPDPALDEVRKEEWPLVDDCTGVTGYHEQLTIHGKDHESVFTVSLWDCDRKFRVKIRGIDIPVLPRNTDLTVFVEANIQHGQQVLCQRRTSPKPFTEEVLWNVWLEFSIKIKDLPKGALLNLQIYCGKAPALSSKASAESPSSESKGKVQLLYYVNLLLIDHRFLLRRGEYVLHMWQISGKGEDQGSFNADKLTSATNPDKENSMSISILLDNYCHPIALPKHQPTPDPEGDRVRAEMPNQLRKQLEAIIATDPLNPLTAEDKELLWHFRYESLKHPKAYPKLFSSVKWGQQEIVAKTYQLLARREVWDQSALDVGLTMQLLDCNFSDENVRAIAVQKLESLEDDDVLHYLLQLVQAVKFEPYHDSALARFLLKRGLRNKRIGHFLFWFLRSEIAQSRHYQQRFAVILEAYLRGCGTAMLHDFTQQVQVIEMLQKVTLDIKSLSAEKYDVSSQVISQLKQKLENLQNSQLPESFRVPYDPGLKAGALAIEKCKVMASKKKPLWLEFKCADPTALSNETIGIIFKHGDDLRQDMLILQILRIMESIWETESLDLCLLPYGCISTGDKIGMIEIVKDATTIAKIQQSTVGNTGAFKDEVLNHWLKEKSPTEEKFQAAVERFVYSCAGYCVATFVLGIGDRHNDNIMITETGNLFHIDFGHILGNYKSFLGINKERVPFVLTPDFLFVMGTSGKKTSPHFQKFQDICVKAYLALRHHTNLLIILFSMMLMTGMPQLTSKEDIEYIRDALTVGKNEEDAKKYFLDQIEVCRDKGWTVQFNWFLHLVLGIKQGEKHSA
Chain of ATM (Q13315 whole entry, looked up): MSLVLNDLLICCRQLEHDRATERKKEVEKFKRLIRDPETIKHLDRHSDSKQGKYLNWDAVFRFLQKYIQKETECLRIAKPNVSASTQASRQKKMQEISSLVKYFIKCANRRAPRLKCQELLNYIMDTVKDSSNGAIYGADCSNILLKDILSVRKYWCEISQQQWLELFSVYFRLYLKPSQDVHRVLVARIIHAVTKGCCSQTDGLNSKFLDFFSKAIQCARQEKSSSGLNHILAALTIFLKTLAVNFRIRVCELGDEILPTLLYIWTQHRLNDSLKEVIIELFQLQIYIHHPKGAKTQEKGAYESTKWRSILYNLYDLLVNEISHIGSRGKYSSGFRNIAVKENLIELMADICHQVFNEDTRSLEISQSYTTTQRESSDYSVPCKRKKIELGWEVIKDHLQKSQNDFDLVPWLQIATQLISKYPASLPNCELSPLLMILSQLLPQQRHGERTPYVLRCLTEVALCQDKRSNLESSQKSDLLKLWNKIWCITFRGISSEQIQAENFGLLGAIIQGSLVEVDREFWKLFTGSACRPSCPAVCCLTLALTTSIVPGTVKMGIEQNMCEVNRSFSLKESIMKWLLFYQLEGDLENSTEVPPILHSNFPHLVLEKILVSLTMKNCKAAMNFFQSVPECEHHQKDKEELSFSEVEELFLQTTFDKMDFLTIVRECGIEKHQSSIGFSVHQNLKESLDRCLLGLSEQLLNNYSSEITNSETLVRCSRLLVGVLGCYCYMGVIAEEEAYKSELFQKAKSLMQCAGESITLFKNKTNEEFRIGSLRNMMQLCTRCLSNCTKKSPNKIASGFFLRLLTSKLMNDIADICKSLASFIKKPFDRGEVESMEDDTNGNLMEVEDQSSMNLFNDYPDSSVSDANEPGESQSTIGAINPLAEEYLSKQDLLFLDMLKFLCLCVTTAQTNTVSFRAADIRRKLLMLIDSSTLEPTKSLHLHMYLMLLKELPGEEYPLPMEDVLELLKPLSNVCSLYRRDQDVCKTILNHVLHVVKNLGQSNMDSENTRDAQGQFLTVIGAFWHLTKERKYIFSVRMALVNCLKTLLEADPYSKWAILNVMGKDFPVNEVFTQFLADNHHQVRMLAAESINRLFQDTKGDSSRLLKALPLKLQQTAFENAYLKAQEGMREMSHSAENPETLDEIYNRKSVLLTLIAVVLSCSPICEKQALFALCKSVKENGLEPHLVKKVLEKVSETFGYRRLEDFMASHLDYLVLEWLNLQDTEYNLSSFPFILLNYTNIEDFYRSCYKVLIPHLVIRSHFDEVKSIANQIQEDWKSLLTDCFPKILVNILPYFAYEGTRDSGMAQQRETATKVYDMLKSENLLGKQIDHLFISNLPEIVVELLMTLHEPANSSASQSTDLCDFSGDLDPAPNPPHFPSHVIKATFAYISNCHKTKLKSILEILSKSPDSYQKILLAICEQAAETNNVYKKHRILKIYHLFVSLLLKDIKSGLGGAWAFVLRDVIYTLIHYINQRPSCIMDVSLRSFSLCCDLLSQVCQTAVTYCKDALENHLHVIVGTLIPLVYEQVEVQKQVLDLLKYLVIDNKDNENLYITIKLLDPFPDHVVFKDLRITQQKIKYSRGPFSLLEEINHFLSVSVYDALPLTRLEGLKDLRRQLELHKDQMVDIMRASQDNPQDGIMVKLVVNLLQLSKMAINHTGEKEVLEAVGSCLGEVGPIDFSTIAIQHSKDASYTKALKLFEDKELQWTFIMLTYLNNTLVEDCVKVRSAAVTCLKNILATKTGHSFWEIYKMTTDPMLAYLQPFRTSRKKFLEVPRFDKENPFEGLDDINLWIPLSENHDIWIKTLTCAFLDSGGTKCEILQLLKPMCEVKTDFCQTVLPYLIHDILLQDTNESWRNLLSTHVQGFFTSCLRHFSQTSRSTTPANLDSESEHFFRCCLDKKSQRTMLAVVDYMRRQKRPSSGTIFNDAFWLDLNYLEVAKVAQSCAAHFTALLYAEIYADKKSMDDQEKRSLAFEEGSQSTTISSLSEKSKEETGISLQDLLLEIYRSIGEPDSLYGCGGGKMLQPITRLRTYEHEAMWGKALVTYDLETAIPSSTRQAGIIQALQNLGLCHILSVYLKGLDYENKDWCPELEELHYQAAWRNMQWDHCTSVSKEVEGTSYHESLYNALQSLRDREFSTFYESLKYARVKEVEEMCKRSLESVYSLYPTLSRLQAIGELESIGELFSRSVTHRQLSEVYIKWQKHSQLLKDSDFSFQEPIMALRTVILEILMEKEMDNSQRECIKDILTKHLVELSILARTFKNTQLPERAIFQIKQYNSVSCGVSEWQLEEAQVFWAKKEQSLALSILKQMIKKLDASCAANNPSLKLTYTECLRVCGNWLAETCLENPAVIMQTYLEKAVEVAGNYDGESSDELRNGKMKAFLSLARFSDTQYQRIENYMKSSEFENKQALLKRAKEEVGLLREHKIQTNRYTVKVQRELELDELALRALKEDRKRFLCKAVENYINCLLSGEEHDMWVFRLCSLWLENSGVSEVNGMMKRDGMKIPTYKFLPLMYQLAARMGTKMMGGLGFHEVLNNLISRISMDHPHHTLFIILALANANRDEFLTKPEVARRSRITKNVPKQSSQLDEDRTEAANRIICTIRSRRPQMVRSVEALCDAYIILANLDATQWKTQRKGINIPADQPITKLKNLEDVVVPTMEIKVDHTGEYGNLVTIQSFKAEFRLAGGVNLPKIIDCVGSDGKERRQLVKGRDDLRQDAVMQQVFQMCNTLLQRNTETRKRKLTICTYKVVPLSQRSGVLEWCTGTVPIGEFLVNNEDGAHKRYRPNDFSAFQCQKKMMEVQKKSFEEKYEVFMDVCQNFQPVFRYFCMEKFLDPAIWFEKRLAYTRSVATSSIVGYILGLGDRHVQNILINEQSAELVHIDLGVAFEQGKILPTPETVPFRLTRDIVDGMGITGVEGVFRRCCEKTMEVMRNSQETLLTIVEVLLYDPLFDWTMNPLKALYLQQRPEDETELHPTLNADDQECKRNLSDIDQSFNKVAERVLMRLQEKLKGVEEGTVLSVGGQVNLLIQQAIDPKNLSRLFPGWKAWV
Chain of ATM in SN38 treated HT-29 cells (Q13315 whole entry, looked up): as above
Chain of BCRP (Q9UNQ0 whole entry): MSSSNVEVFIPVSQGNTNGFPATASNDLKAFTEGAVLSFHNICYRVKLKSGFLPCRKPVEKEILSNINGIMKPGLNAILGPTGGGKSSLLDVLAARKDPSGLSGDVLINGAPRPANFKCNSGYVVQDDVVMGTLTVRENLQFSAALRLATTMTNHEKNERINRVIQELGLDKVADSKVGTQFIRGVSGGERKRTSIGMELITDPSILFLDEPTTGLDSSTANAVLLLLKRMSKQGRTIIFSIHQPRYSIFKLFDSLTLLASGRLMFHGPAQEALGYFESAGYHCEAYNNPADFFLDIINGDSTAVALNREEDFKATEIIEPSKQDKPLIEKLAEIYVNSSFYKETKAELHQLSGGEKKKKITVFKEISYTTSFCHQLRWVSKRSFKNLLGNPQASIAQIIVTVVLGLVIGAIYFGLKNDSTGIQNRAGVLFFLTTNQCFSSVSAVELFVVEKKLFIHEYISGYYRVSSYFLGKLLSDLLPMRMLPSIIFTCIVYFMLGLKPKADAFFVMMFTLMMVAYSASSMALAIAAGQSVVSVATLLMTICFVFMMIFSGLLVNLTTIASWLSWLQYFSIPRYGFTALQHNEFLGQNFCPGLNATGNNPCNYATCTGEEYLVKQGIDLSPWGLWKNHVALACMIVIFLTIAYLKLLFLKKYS

Compound	IC50 [1] [µM]	IC50 [2] [µM]	IC50 [3] [µM]	IC50 [4] [µM]	IC50 [5] [µM]	IC50 [6] [µM]	IC50 [7] [µM]	IC50 [8] [µM]	further results
CC(C)n1c(=O)n(C)c2nnc3cc(F)c(-c4ccc(COCCN5CCCCC5)nc4)cc3c21 [Example 7, 7-fluoro-1-isopropyl-3-methyl-8-(6-((2-(piperidin-1-yl)ethoxy)methyl)pyridin-3-yl)-1H-imidazo[4,5-c]cinnolin-2(3H)-one]	> 10	> 10	0.026	> 10	0.274	> 10	> 10	> 10	
CC(C)n1c(=O)n(C)c2nnc3cc(F)c(-c4ccc(COCCN5CC6CC6C5)nc4)cc3c21 (stereo not drawn) [Example 11, 8-(6-((2-(3-azabicyclo[3.1.0]hexan-3-yl)ethoxy)methyl)pyridin-3-yl)-7-fluoro-1-isopropyl-3-methyl-1H-imidazo[4,5-c]cinnolin-2(3H)-one]	> 10	> 10	0.037	> 10	0.018	> 10	> 10	> 10	
CC(C)n1c(=O)n(C)c2nnc3cc(F)c(-c4ccc(OCCCN5CCC(F)CC5)nc4)cc3c21 [Example 13, 7-fluoro-8-(6-(3-(4-fluoropiperidin-1-yl)propoxy)pyridin-3-yl)-1-isopropyl-3-methyl-1H-imidazo[4,5-c]cinnolin-2(3H)-one]	> 10	> 10	> 1	> 10	0.027	> 10	> 10	> 10	
CC(C)n1c(=O)n(C)c2nnc3cc(F)c(-c4ccc(OCCCN5CC6CC6C5)nc4)cc3c21 (stereo not drawn) [Example 16, 8-(6-(3-(3-azabicyclo[3.1.0]hexan-3-yl)propoxy)pyridin-3-yl)-7-fluoro-1-isopropyl-3-methyl-1H-imidazo[4,5-c]cinnolin-2(3H)-one]	> 10	> 10	> 1	> 10	0.0185	> 10	> 10	> 10	
CC(C)n1c(=O)n(C)c2cnc3cc(F)c(-c4ccc(OCCCN5CCCCC5)nc4)cc3c21 [Ref. Comp. 3, AZD1390]									hERG liability (in words) [9]: significant hERG inhibition; hERG inhibition @10 μM [9]: 79%; Pgp substrate (in words) [10]: not a Pgp substrate
CCN(C(C)=O)c1cccc(-c2ccnc3c(C#N)cnn23)c1 [Ref. Comp. 4, N-[3-(3-cyanopyrazolo[1,5-a]pyrimidin-7-yl)phenyl]-N-ethylacetamide]									AO intrinsic clearance [11]: 3.1 μL/min/mg protein; clearance as % liver blood flow [12]: ~80 % liver blood flow; microsomal CLint at 0.5 μM [13]: 3.1 µL/min/mg
OCCn1cc(-c2cnc3nnn(Cc4ccc5ncccc5c4)c3n2)cn1 [Ref. Comp. 5, 2-[4-[3-(quinolin-6-ylmethyl)triazolo[4,5-b]pyrazin-5-yl]pyrazol-1-yl]ethanol]									clearance in humans [12]: 6 mL/min/kg; clearance as % liver blood flow [12]: ~30 % liver blood flow
CN(C)CCCOc1ccc(-c2ccc3nnc4c(c3c2)n(C2CCOCC2)c(=O)n4C)cn1 [compound 1, 8-[6-(3-dimethylamino-propoxy)-pyridin-3-yl]-3-methyl-1-(tetrahydro-2H-pyran-4-yl)-1H-imidazo[4,5-c]cinnolin-2(3H)-one]			0.0029		0.112				efflux ratio at 2 h, 1 μM [14]: 0.62; hERG inhibition @10 μM [9]: 58%; efflux ratio at 2 h, 1 μM ([10]; human): 5.6
